Earlier results in US20230112273A1, “Process for Producing an Aroma-Laden Gas, Aroma-Laden Gas, and Use of the Aroma-Laden Gas” (Döhler GmbH, priority 2020, published 2023).

Conditions: listed beside the composition of the aromatic substances in the laden solid phase (beer, Exemplary Embodiment 1)

Point of comparison: CC(=O)OCCC(C)C [3-methylbutyl acetate], “Log P” value 2.12. Against it:
- CCC(C)CO (stereo not shown) [2-methyl-1-butanol] — lower, 1.22
- CC(C)CO [isobutanol] — lower, 0.69
- CCCCCC(=O)O [hexanoic acid] — lower, 1.84
- CCCCCCCC(=O)OCC [octanoic acid ethyl ester] — higher, 3.9
- CCCCCCCCCC(=O)O [decanoic acid] — higher, 3.96
- CC(C)CCO [3-methyl-1-butanol] — lower, 1.22
